Where a name gives a salt, the structure may show the parent alone. Read-outs that look alike come from different tables or passages of the source. Non-standard residues stand in square brackets, D forms with d. Residues, ends and D or L forms follow the SMILES beside them. aIle = CC[C@@H](C)[C@H](N)C(=O)O

From article PMC7897990, “TriTOX: A novel Trichomonas vaginalis assay platform for high-throughput screening of compound libraries” (International Journal for Parasitology: Drugs and Drug …, 2021) come the findings set out here.

Test [1] has as its system Trichomonas vaginalis G3 trophozoites.
Test [2] has the same test system. Nature of the test: microbe, parasite or virus in culture. The following applies: 48 h.
[3] abbreviates: HTS, parasite screen at 1 µg/mL, replicate 1, raw absorbance.
Setting [4] is: HTS, parasite screen at 1 µg/mL, replicate 2, raw absorbance.
The mark [5] stands for this setting: read-out: T.vaginalis_%inb_Rep1.
The mark [6] stands for this setting: read-out: T.vaginalis_%inb_Rep2.

As to `CC[C@@H](C)[C@@H]1NC(=O)[C@@H](CC(C)C)NC(=O)[C@H](CC(C)C)NC(=O)[C@H](Cc2c[nH]c3ccccc23)NC(=O)CNC(=O)[C@H](CC(N)=O)NC1=O` [Desotamide] (cyclo(GWL[dL][aIle]N)), the T.vaginalis_Absorbance_Rep1 in test [1] (setting [3]) is given as 0.987. This compound also yielded a T.vaginalis_Absorbance_Rep2 in test [1] (setting [4]) of 0.689. For the same compound, the values for the inhibition of growth at 1 µg/mL in test [2] (setting [5]) and in test [2] (setting [6]) were 15% and 4.99%, respectively.

For the compound `O=C(O)c1cccc(C(=O)O)n1` [Dipicolinic acid], the T.vaginalis_Absorbance_Rep1 in test [1] was 0.967. Moreover, the T.vaginalis_Absorbance_Rep2 in test [1] is on record as 0.656. Moreover, the inhibition of growth at 1 µg/mL in test [2] (setting [5]) is 13.9%; in test [2] (setting [6]), 2.6%.

On to `CC[C@H]1OC(=O)[C@H](C)[C@@H](O[C@H]2C[C@@](C)(OC)[C@@H](O)[C@H](C)O2)[C@H](C)[C@@H](O[C@@H]2O[C@H](C)C[C@H](N(C)C)[C@H]2O)[C@](C)(O)C[C@@H](C)[C@@H]2N[C@@H](COCCOC)O[C@H]([C@H]2C)[C@]1(C)O` [Dirithromycin], for which the T.vaginalis_Absorbance_Rep1 in test [1] (setting [3]) was determined as 0.867. This compound also displayed a T.vaginalis_Absorbance_Rep2 in test [1] (setting [4]) of 0.651. Further, the inhibition of growth at 1 µg/mL worked out at 8.51% in test [2] (setting [5]) and 2.24% in test [2] (setting [6]).

`C[C@@H](O)[C@H]1C(=O)N2C(C(=O)O)=C(S[C@@H]3CN[C@H](CNS(N)(=O)=O)C3)[C@H](C)[C@H]12` [Doripenem] came in with a T.vaginalis_Absorbance_Rep1 in test [1] (setting [3]) of 0.999. For the same compound, the inhibition of growth at 1 µg/mL in test [2] (setting [5]) and in test [2] (setting [6]) was 15.6% throughout.

Compound `COc1cccc2c1C(=O)c1c(O)c3c(c(O)c1C2=O)C[C@@](O)(C(=O)CO)C[C@@H]3O[C@H]1C[C@H](N)[C@H](O)[C@H](C)O1` [Doxorubicin] had a T.vaginalis_Absorbance_Rep1 in test [1] (setting [3]) of 0.959. In test [1] (setting [4]), the T.vaginalis_Absorbance_Rep2 amounted to 0.663. For the same compound, the inhibition of growth at 1 µg/mL in test [2] (setting [5]) was 13.5%; in test [2] (setting [6]), 3.11%.

For the compound `CN(C)c1ccc(O)c2c1C[C@H]1C[C@H]3[C@H](N(C)C)C(O)=C(C(N)=O)C(=O)[C@@]3(O)C(O)=C1C2=O` [Minocycline HCl], the inhibition of growth at 1 µg/mL came out at 4.51% in test [2] (setting [5]) and 0.77% in test [2] (setting [6]).

As for `CC[C@@]1([C@@H]2O[C@@H]([C@H]3O[C@@](O)(CO)[C@H](C)C[C@@H]3C)C[C@@H]2C)CC[C@H]([C@]2(C)CC[C@]3(C[C@H](O)[C@@H](C)[C@@H]([C@@H](C)[C@@H](OC)[C@H](C)C(=O)O)O3)O2)O1` [Monensin A], the inhibition of growth at 1 µg/mL turned out to be 12.4% in test [2] (setting [5]) and 16.1% in test [2] (setting [6]).

With `COc1c(C)c2c(c(O)c1C/C=C(\C)CCC(=O)O)C(=O)OC2` [Mycophenolic acid], the inhibition of growth at 1 µg/mL in test [2] (setting [5]) was 12.2%; in test [2] (setting [6]) it was 14.1%.

Turning to `CC[C@@H](C(=O)O)[C@@H]1O[C@@H]([C@@H](C)[C@H](O)[C@H](C)C(=O)[C@H](CC)[C@H]2O[C@]3(C=C[C@@H](O)[C@]4(CC[C@@](C)([C@H]5CC[C@](O)(CC)[C@H](C)O5)O4)O3)[C@H](C)C[C@@H]2C)[C@@H](C)C[C@@H]1C` [Narasin], the inhibition of growth at 1 µg/mL in test [2] (setting [5]) amounted to 6.14%; in test [2] (setting [6]), 4.3%.

Turning to `CO[C@@H]1C[C@@H](C[C@H]2CC[C@H](C)[C@H]([C@@H](C)C(=O)O)O2)O[C@]2(O[C@](C)([C@H]3CC[C@@](C)([C@@H]4O[C@@H]([C@H]5O[C@@](O)(CO)[C@H](C)C[C@@H]5C)C[C@@H]4C)O3)C[C@H]2C)[C@@H]1C` [Nigericin], the inhibition of growth at 1 µg/mL in test [2] (setting [5]) came to 6.59%; in test [2] (setting [6]) it was 6.22%.

As for `COC(=O)[C@@H]1c2cc3c(c(O)c2[C@@H](O[C@@H]2O[C@@H](C)[C@H](OC)[C@@](C)(OC)[C@H]2OC)C[C@]1(C)O)C(=O)c1c(O)cc2c(c1C3=O)O[C@@H]1O[C@@]2(C)[C@H](O)[C@@H](N(C)C)[C@@H]1O` [Nogalamycin], the figures for the inhibition of growth at 1 µg/mL in test [2] (setting [5]) and in test [2] (setting [6]) were 12.8% and 13.3%, respectively.

For `CO[C@@H]1[C@@H](OC(N)=O)[C@@H](O)[C@H](Oc2ccc3c(O)c(NC(=O)c4ccc(O)c(CC=C(C)C)c4)c(=O)oc3c2C)OC1(C)C` [Novobiocin], the figures for the inhibition of growth at 1 µg/mL in test [2] (setting [5]) and in test [2] (setting [6]) were 4.51% and 4.68%, respectively.

Turning to `CO[C@H]1C[C@H](O[C@H]2[C@H](C)[C@@H](O[C@@H]3O[C@H](C)C[C@H](N(C)C)[C@H]3O)[C@@H](C)C[C@@]3(CO3)C(=O)[C@H](C)[C@@H](O)[C@@H](C)[C@@H](C)OC(=O)[C@@H]2C)O[C@@H](C)[C@@H]1O` [Oleandomycin], the inhibition of growth at 1 µg/mL in test [2] (setting [5]) was determined as 13.2%; in test [2] (setting [6]), 4.75%.

Consider `Cc1cc(O)cc(O)c1C(=O)O` [Orsellinic acid], for which the inhibition of growth at 1 µg/mL in test [2] (setting [5]) stood at 12.5%; in test [2] (setting [6]), 14.9%.

For the compound `CC1=C\[C@@H](O)CC(=O)Cc2nc(co2)C(=O)N2CCC=C2C(=O)O[C@H](C(C)C)[C@H](C)/C=C/C(=O)NC\C=C\1` [Ostreogrycin A], the inhibition of growth at 1 µg/mL amounted to 13.9% in test [2] (setting [5]) and 14.5% in test [2] (setting [6]).

Consider `CN(C)[C@@H]1C(O)=C(C(N)=O)C(=O)[C@@]2(O)C(O)=C3C(=O)c4c(O)cccc4[C@@](C)(O)[C@H]3[C@H](O)[C@@H]12` [Oxytetracycline], for which the inhibition of growth at 1 µg/mL in test [2] (setting [5]) was 13.3%; in test [2] (setting [6]) it was 10.7%.

As to `OC[C@H]1O[C@@H](n2cnc3c2NC=NC[C@H]3O)C[C@@H]1O` [Pentostatin], the inhibition of growth at 1 µg/mL in test [2] (setting [5]) came out at 12.7%; in test [2] (setting [6]), 15.8%.

On to `Oc1cc(O)cc(O)c1` [Phloroglucinol], for which the inhibition of growth at 1 µg/mL in test [2] (setting [5]) was found to be 13.9%; in test [2] (setting [6]), 12.3%.

On to `C[C@@H]1C/C=C/C=C/C=C/C=C/[C@H](O[C@@H]2O[C@H](C)[C@@H](O)[C@H](N)[C@@H]2O)C[C@@H]2O[C@](O)(C[C@@H](O)C[C@H]3O[C@@H]3/C=C/C(=O)O1)C[C@H](O)[C@H]2C(=O)O` [Pimaricin], for which the inhibition of growth at 1 µg/mL amounted to 10.4% in test [2] (setting [5]) and 13.7% in test [2] (setting [6]).

Take `CC[C@@H]1/C=C(\C)C[C@H](C)C[C@H](OC)[C@H]2O[C@@](O)(C(=O)C(=O)N3CCCC[C@H]3C(=O)O[C@H](/C(C)=C/[C@@H]3CC[C@H](Cl)[C@H](OC)C3)[C@H](C)[C@@H](O)CC1=O)[C@H](C)C[C@@H]2OC` [Pimecrolimus]: the inhibition of growth at 1 µg/mL in test [2] (setting [5]) is 13%; in test [2] (setting [6]), 14%.

As for `CC[C@H](C)C(=O)O[C@H]1C[C@H](O)C=C2C=C[C@H](C)[C@H](CC[C@@H](O)C[C@@H](O)CC(=O)O)[C@H]21` [Pravastatin sodium], the inhibition of growth at 1 µg/mL is 13% in test [2] (setting [5]) and 13.6% in test [2] (setting [6]).

For `C/C(=C\C(=O)OCCCCCCCCC(=O)O)C[C@@H]1OC[C@H](C[C@@H]2O[C@H]2[C@@H](C)[C@H](C)O)[C@@H](O)[C@H]1O` [Pseudomonic acid], the inhibition of growth at 1 µg/mL in test [2] (setting [5]) came out at 11.5%; in test [2] (setting [6]), 11.7%.

Take `COc1ccc(C[C@H](N)C(=O)N[C@H]2[C@@H](O)[C@H](n3cnc4c(N(C)C)ncnc43)O[C@@H]2CO)cc1` [Puromycin]: the inhibition of growth at 1 µg/mL was 12% in test [2] (setting [5]) and 10.7% in test [2] (setting [6]).

Regarding `O=C(O)c1ccc[nH]1` [Pyrrole-2-carboxylic acid], the inhibition of growth at 1 µg/mL in test [2] (setting [5]) stood at 17.3%; in test [2] (setting [6]), 11.6%.

Consider `CN(C)c1cc(NC(=O)CNC(C)(C)C)c(O)c2c1C[C@H]1C[C@H]3[C@H](N(C)C)C(O)=C(C(N)=O)C(=O)[C@@]3(O)C(O)=C1C2=O` [Tigecycline], for which the figures for the inhibition of growth at 1 µg/mL in test [2] (setting [5]) and in test [2] (setting [6]) were 10% and 5.97%, respectively.

In the case of `CC[C@H]1OC(=O)C[C@@H](O)[C@H](C)[C@@H](O[C@@H]2O[C@H](C)[C@@H](O)[C@H](N(C)C)[C@H]2O)[C@@H](CCN2CCCCC2)C[C@@H](C)C(=O)/C=C/C(C)=C/[C@@H]1CN1CCCCC1` [Tildipirosin], the results for the inhibition of growth at 1 µg/mL in test [2] (setting [5]) and in test [2] (setting [6]) were 7.13% and 12.7%, respectively.

Regarding `CC[C@H]1OC(=O)C[C@@H](O)[C@H](C)[C@@H](O[C@@H]2O[C@H](C)[C@@H](O[C@H]3C[C@@](C)(O)[C@@H](O)[C@H](C)O3)[C@H](N(C)C)[C@H]2O)[C@@H](CC=O)C[C@@H](C)C(=O)/C=C/C(C)=C/[C@@H]1CO[C@@H]1O[C@H](C)[C@@H](O)[C@@H](OC)[C@H]1OC` [Tylosin], the inhibition of growth at 1 µg/mL in test [2] (setting [5]) came to 9.02%; in test [2] (setting [6]) it was 5.48%.

For the compound `O=C(O)/C=C/c1c[nH]cn1` [Urocanic acid], the inhibition of growth at 1 µg/mL is 8.39% in test [2] (setting [5]) and 13.2% in test [2] (setting [6]).

Turning to `C[C@H]1[C@H](C)CC[C@]2(C(=O)O)CC[C@]3(C)C(=CC[C@@H]4[C@@]5(C)CC[C@H](O)C(C)(C)[C@@H]5CC[C@]43C)[C@H]12` [Ursolic acid], the inhibition of growth at 1 µg/mL in test [2] (setting [5]) was 7.39%; in test [2] (setting [6]), 10.4%.

Turning to `CC(=O)c1c(O)c(C)c(O)c2c1OC1=CC(=O)C(C(C)=O)C(=O)C12C` (centres unmarked) [Usnic acid], the inhibition of growth at 1 µg/mL in test [2] (setting [5]) stood at 8.76%; in test [2] (setting [6]), 13.7%.

As for `C=C[C@]1(C)C[C@@H](OC(=O)CSC(C)(C)CNC(=O)[C@H](N)C(C)C)[C@]2(C)[C@H](C)CC[C@]3(CCC(=O)[C@H]32)[C@@H](C)[C@@H]1O` [Valnemulin], the inhibition of growth at 1 µg/mL in test [2] (setting [5]) stood at 8.39%; in test [2] (setting [6]), 8.96%.

In the case of `C=CC(C)(C)[C@@]12C[C@H]3C(=O)N[C@H](CC(C)C)C(=O)N3[C@H]1N(C(C)=O)c1ccccc12` [Verrucofortine], the figures for the inhibition of growth at 1 µg/mL in test [2] (setting [5]) and in test [2] (setting [6]) were 7.92% and 9.69%, respectively.

As to `O=C1NC(c2c[nH]c3ccc(O)cc23)=C/C1=C1\C(=O)Nc2ccccc21` [Violacein], the inhibition of growth at 1 µg/mL in test [2] (setting [5]) amounted to 11.2%; in test [2] (setting [6]), 11.8%.

For `CO[C@H]1C[C@@H]2CC[C@@H](C)[C@@](O)(O2)C(=O)C(=O)N2CCCC[C@H]2C(=O)O[C@H]([C@H](C)C[C@@H]2CC[C@H](n3cnnn3)[C@H](OC)C2)CC(=O)[C@H](C)/C=C(\C)[C@@H](O)[C@@H](OC)C(=O)[C@H](C)C[C@H](C)/C=C/C=C/C=C/1C` [Zotarolimus], the inhibition of growth at 1 µg/mL in test [2] (setting [5]) came to 10.4%; in test [2] (setting [6]), 6.09%.
